This test deals with protein levels in P. aeruginosa ATCC strain 19660 infected cornea. As to the kind of experiment: ELISA of corneal proteins, strain 19660 infection. The format is in vivo, C57BL/6 (B6) mice. As to conditions: vs PBS. The procedure: The left eyes of B6 mice (n=5/group/time) were injected with 5 μl of 2 μg/μl glycyrrhizin (GLY) (Sigma-Aldrich, St. Louis, Mo.) or PBS (control) subconjunctivally, one day before infection. Similar treatment was done using carbenoxolone (CBX) (Sigma-Aldrich, St. Louis, Mo.). All mice were injected intraperitoneally (IP) at 1 and 3 days p.i. with 100 μl of GLY (2 μg/μl) or CBX (1 μg/μl). PBS served as control for all these experiments. In a separate similar experiment mice were treated one day before infection with GLY subconjunctivally and injected intraperitoneally (i.p.) with GLY plus recombinant (r) HMGB1 (1 μg/100 μl) or GLY plus PBS. IP injections were similarly given at 1 and 3 days p.i. In an additional experiment, KEI 1025 infected B6 mice were treated with 5 μl of 2 μg/μl GLY subconjunctivally at 6 hours p.i. and injected intraperitoneally at 1 and 3 days p.i. with 100 μl of GLY (2 μg/μl).
KEI 1025 or ATCC strain 19660 infected GLY or PBS treated, B6 mice (n=5/group/time) were sacrificed at 3 and 5 days p.i. and normal and infected corneas harvested. To quantify IL-1β and CXCL2 proteins, individual corneas were homogenized in 1 ml of 50 mM potassium phosphate buffer (pH 6.0) containing 0.5% HTAB (hexadecyltrimethylammonium bromide, Sigma). To quantify HMGB1, cathelicidin-related antimicrobial peptide (CRAMP), mouse beta defensin 2 (mBD2) and mouse beta defensin 3 (mBD3) protein levels, individual corneas were homogenized in 500 μl of PBS containing 0.1% Tween 20 (Sigma) and protease inhibitors (Roche, Indianapolis, Ind.). Corneal homogenates were centrifuged at 12,000 g for 10 min. A 50 μl aliquot of each supernatant was assayed in duplicate to quantify IL-1β, CXCL2, HMGB1 and mBD2 proteins. A 100 μl aliquot of CRAMP and mBD3 supernatant was assayed in duplicate to quantify corresponding protein levels. Undiluted supernatant aliquots were used to quantify all proteins except CXCL2 (1:2 dilution) and HMGB1 (1:5 dilution). An HMGB1 ELISA kit was purchased from Chondrex Inc., Redmond, Wash. CRAMP, mBD2 and mBD3 ELISA kits were purchased from MyBioSource, Inc., San Diego, Calif. All other ELISA kits were purchased from R&D Systems, Minneapolis, Minn. Assays were run following the manufacturer's instructions. Sensitivities of the assays were: 2.31 […] (mBD3).
Background: In an ELISA, binding on a coated surface is turned into a signal by an enzyme label.

On to `CC1(C)[C@@H](O[C@H]2O[C@H](C(=O)O)[C@@H](O)[C@H](O)[C@H]2O[C@@H]2O[C@H](C(=O)O)[C@@H](O)[C@H](O)[C@H]2O)CC[C@]2(C)[C@H]3C(=O)C=C4[C@@H]5C[C@@](C)(C(=O)O)CC[C@]5(C)CC[C@@]4(C)[C@]3(C)CC[C@@H]12` [GLY, glycyrrhizin], for which the CXCL2 protein levels entry (strain 19660, 3 days p.i.) is “downregulated significantly” and the CXCL2 protein levels entry (strain 19660, 5 days p.i.) is “downregulated significantly”. Further, the HMGB1 protein result (strain 19660, normal cornea and infected groups) is “no significant differences”. Also, the CXCL2 protein result (strain 19660 experiment, normal cornea) was “No differences”.

Source of the values: patent US10500222B2, “Compositions and methods relating to treatment of infection” (Wayne State University, priority 2015, dated 2019).
